In PubChem BioAssay AID248 (DTP/NCI, 2004):
“And” between values parts separate entries of the source, which are not always exact repeats. Identical values can stand only once. Toxic doses and inconclusive results are not listed. Rule as the data show it: active = T/C of 150% or more; inactive = T/C below 125%.

Tested on: L1210 leukemia ip in BDF1 mice, survival T/C
Experiment: NCI In Vivo Anticancer Drug Screen. Data for tumor model L1210 Leukemia (intraperitoneal) in B6D2F1 (BDF1) mice
Settings: endpoint: mean survival time, higher = longer survival
In short: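 Read-out is survival time, reported as the treated-group measurement over the vehicle-control measurement.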

[1] = dose: 100.0 mg/kg/injection, schedule: Q01DX001 (ip), vehicle: carboxymethylcellulose (CMC)
[2] = dose: 200.0 mg/kg/injection, schedule: Q01DX001 (ip), vehicle: carboxymethylcellulose (CMC)
[3] = dose: 400.0 mg/kg/injection, schedule: Q01DX001 (ip), vehicle: carboxymethylcellulose (CMC)
[4] = dose: 100.0 mg/kg/injection, schedule: Q01DX001 (ip), vehicle: saline
[5] = dose: 200.0 mg/kg/injection, schedule: Q01DX001 (ip), vehicle: saline
[6] = dose: 400.0 mg/kg/injection, schedule: Q01DX001 (ip), vehicle: saline
[7] = dose: 100.0 mg/kg/injection, schedule: Q04DX003 (ip), vehicle: Klucel (hydroxypropylcellulose) (HPC)

Measured: T/C

CNc1nc(N)nc(Nc2ccc(I)cc2)c1N=O
inactive: [1] 105 % of control | dose: 100.0 mg/kg/injection, schedule: Q01DX009 (ip), vehicle: acetone 107 % of control | dose: 100.0 mg/kg/injection, schedule: Q04DX003 (ip), vehicle: acetone 115 % of control | [2] 110 % of control | dose: 200.0 mg/kg/injection, schedule: Q01DX009 (ip), vehicle: acetone 107 % of control | dose: 200.0 mg/kg/injection, schedule: Q04DX003 (ip), vehicle: acetone 105 % of control | [3] 100 % of control | dose: 400.0 mg/kg/injection, schedule: Q01DX009 (ip), vehicle: acetone 98 % of control | dose: 400.0 mg/kg/injection, schedule: Q04DX003 (ip), vehicle: acetone 98 % of control

Nc1c(Br)cc2c(c1Br)C(=O)c1ccccc1-2
inactive: [1] 98 % of control | [2] 109 % of control | [3] 102 % of control

CCC(C(O)c1cccs1)C(O)(C(F)(F)F)C(F)(F)F (configuration not stated)
inactive: dose: 100.0 mg/kg/injection, schedule: Q01DX009 (ip), vehicle: saline with Tween-80 95 % of control | dose: 100.0 mg/kg/injection, schedule: Q04DX003 (ip), vehicle: saline with Tween-80 95 % of control | dose: 200.0 mg/kg/injection, schedule: Q01DX009 (ip), vehicle: saline with Tween-80 116 % of control | dose: 200.0 mg/kg/injection, schedule: Q04DX003 (ip), vehicle: saline with Tween-80 95 % of control | dose: 400.0 mg/kg/injection, schedule: Q01DX009 (ip), vehicle: saline with Tween-80 97 % of control | dose: 400.0 mg/kg/injection, schedule: Q04DX003 (ip), vehicle: saline with Tween-80 93 % of control

O=C(Nc1ccc(S(=O)(=O)NC2CCCCC2)cc1)OC1CCCCC1
inactive: [4] 92 % of control | [5] 90 % of control | [6] 94 % of control

Cc1ccc([N+](=O)[O-])cc1N=C=O
inactive: dose: 100.0 mg/kg/injection, schedule: Q01DX009 (ip), vehicle: Klucel (hydroxypropylcellulose) (HPC) 87 % of control | [7] 96 % of control | dose: 200.0 mg/kg/injection, schedule: Q01DX009 (ip), vehicle: Klucel (hydroxypropylcellulose) (HPC) 91 % of control | dose: 200.0 mg/kg/injection, schedule: Q04DX003 (ip), vehicle: Klucel (hydroxypropylcellulose) (HPC) 97 % of control | dose: 400.0 mg/kg/injection, schedule: Q01DX009 (ip), vehicle: Klucel (hydroxypropylcellulose) (HPC) 97 % of control | dose: 400.0 mg/kg/injection, schedule: Q04DX003 (ip), vehicle: Klucel (hydroxypropylcellulose) (HPC) 97 % of control

O=C1C(c2ccccc2)=C(c2ccccc2)c2c1c(-c1ccccc1)c(-c1ccccc1)c(-c1ccccc1)c2-c1ccccc1
inactive: dose: 6.25 mg/kg/injection, schedule: Q01DX001 (ip), vehicle: saline with Tween-80 98 % of control | dose: 12.5 mg/kg/injection, schedule: Q01DX001 (ip), vehicle: saline with Tween-80 98 % of control | dose: 25.0 mg/kg/injection, schedule: Q01DX001 (ip), vehicle: saline with Tween-80 89 % of control and 91 % of control | dose: 200.0 mg/kg/injection, schedule: Q01DX001 (ip), vehicle: saline with Tween-80 90 % of control | dose: 400.0 mg/kg/injection, schedule: Q01DX001 (ip), vehicle: saline with Tween-80 87 % of control

CN(C)C=Nc1c2c(C#N)cn(C3OC(CO)C(O)C3O)c2nc[n+]1[O-] (configuration not stated)
inactive: dose: 12.5 mg/kg/injection, schedule: Q01DX005 (ip), vehicle: saline 97 % of control | dose: 12.5 mg/kg/injection, schedule: Q01DX009 (ip), vehicle: saline 104 % of control | dose: 25.0 mg/kg/injection, schedule: Q01DX005 (ip), vehicle: saline 102 % of control | dose: 25.0 mg/kg/injection, schedule: Q01DX009 (ip), vehicle: saline 104 % of control | dose: 50.0 mg/kg/injection, schedule: Q01DX005 (ip), vehicle: saline 105 % of control | dose: 50.0 mg/kg/injection, schedule: Q01DX009 (ip), vehicle: saline 109 % of control

C/C(=C\COC1CCCCO1)CCC1OC1(C)C (configuration not stated)
inactive: [4] 103 % of control | dose: 100.0 mg/kg/injection, schedule: Q01DX009 (ip), vehicle: saline 108 % of control | [5] 100 % of control | dose: 200.0 mg/kg/injection, schedule: Q01DX009 (ip), vehicle: saline 98 % of control | [6] 100 % of control | dose: 400.0 mg/kg/injection, schedule: Q01DX009 (ip), vehicle: saline 101 % of control

CN(C)C(=S)Oc1ccccn1
inactive: dose: 25.0 mg/kg/injection, schedule: Q04DX003 (ip), vehicle: Klucel (hydroxypropylcellulose) (HPC) 106 % of control | dose: 50.0 mg/kg/injection, schedule: Q04DX003 (ip), vehicle: Klucel (hydroxypropylcellulose) (HPC) 104 % of control | [7] 102 % of control and 105 % of control
